{
  "source": "patent US10800730B2",
  "about": "“Complex and structurally diverse compounds” (The Board of Trustees of the University of Illinois, priority 2012, dated 2020)",
  "key": {"U-937 (lymphoma)": {"test_system": "U-937 (lymphoma)", "test": "72-hour IC50 toward U-937 cancer cell line", "type": "cell-based", "settings": "Homo sapiens", "excerpt": "(§1) Compounds prepared according to the methods described herein have been screened for activity against various cancer cell lines."}, "HeLa (cervical)": {"test_system": "HeLa (cervical)", "test": "72-hour IC50 toward HeLa cancer cell line", "type": "cell-based", "settings": "Homo sapiens", "excerpt": "as §1"}, "H1299 (NSC lung)": {"test_system": "H1299 (NSC lung)", "test": "72-hour IC50 toward H1299 cancer cell line", "type": "cell-based", "settings": "Homo sapiens, NCI-H1299", "excerpt": "as §1"}, "MCF7 (breast)": {"test_system": "MCF7 (breast)", "test": "72-hour IC50 toward MCF7 cancer cell line", "type": "cell-based", "settings": "Homo sapiens", "excerpt": "as §1"}, "B16F10 (melanoma)": {"test_system": "B16F10 (melanoma)", "test": "72-hour IC50 toward B16F10 cancer cell line", "type": "cell-based", "settings": "Mus musculus, B16-F10", "excerpt": "as §1"}, "EL-4 (lymphoma)": {"test_system": "EL-4 (lymphoma)", "test": "72-hour IC50 toward EL-4 cancer cell line", "type": "cell-based", "excerpt": "as §1"}, "A549 (lung)": {"test_system": "A549 (lung)", "test": "72-hour IC50 toward A549 cancer cell line", "type": "cell-based", "settings": "Homo sapiens", "excerpt": "as §1"}, "caspase": {"test_system": "caspase", "test": "Western blot for caspase activation", "type": "cell-based", "settings": "Western blot (FIG. 11)"}, "[1]": {"test_system": "EL-4 syngeneic mouse model", "test": "Tumor volume in EL-4 syngeneic mouse model", "type": "in vivo", "settings": "2 treatments at 30 mg/kg over one week and a final treatment at 20 mg/kg after the first week, p=0.023, n=8"}, "U-937 cells": {"test_system": "U-937 cells", "test": "Non-apoptotic cell death of U-937 cells", "type": "cell-based", "settings": "U-937 cells (FIG. 12)", "excerpt": "FIG. 12. Non-apoptotic cell death of U-937 cells by compound GA-4."}},
  "data": [
    {"smiles": "C=C1C[C@]23C[C@@]1(O)CC[C@H]2[C@@]12C=CC(=O)C(C)(C(=O)O1)[C@H]2[C@@H]3C(=O)OC", "note": "[GA-4]", "values": [
      {"measurement": "IC50", "setting": "U-937 (lymphoma)", "result": "560 ± 180", "unit": "nM"},
      {"measurement": "IC50", "setting": "HeLa (cervical)", "result": "1140 ± 30", "unit": "nM"},
      {"measurement": "IC50", "setting": "H1299 (NSC lung)", "result": "2400 ± 800", "unit": "nM"},
      {"measurement": "IC50", "setting": "MCF7 (breast)", "result": "4800 ± 1300", "unit": "nM"},
      {"measurement": "IC50", "setting": "B16F10 (melanoma)", "result": "1000 ± 400", "unit": "nM"},
      {"measurement": "IC50", "setting": "EL-4 (lymphoma)", "result": "850 ± 90", "unit": "nM"},
      {"measurement": "IC50", "setting": "A549 (lung)", "result": "5900 ± 50", "unit": "nM"},
      {"measurement": "caspase activation", "setting": "caspase", "result": "lack of caspase activation"},
      {"measurement": "reduction in tumor volume", "setting": "[1]", "result": 43, "unit": "%"},
      {"measurement": "non-apoptotic cell death", "setting": "U-937 cells", "result": "remarkable amounts of non-apoptotic cell death"}
    ]},
    {"smiles": "COC(=O)[C@H]1[C@@H]2C3(C)C(=O)C=C[C@@]2(OC3=O)[C@@H]2CC[C@@]3(CBr)C[C@]21CC3=O", "note": "[GA-81]", "values": [
      {"measurement": "IC50", "setting": "U-937 (lymphoma)", "result": "1780 ± 90", "unit": "nM"},
      {"measurement": "IC50", "setting": "HeLa (cervical)", "result": "4900 ± 90", "unit": "nM"},
      {"measurement": "IC50", "setting": "A549 (lung)", "result": "4500 ± 90", "unit": "nM"}
    ]}
  ]
}
